Data from publication PMC8977034, “Amphipathic dendritic poly-peptides carrier to deliver antisense oligonucleotides against multi-drug resistant bacteria in vitro and in vivo” (Journal of Nanobiotechnology, 2022).

Experiments:
ESBLs-E. coli [1] = assay: Survival assay in mouse sepsis model; type: in vivo, male Balb/c mice; settings: text 1.5 mg kg^−1, methods and Fig. 5 legend 4 mg/kg; i.p. at 0.5 and 6 h after infection; n = 10
Description: Male Balb/c mice (6–8 weeks old and weighing 18–22 g) were used in this experiment. The experimental and animal care procedures were approved by the Animal Care and Use Committee of Fourth Military Medical University. All methods were carried out strictly in accordance with the approved guidelines. 4 × 10^5 CFU ESBLs-E. coli in 400 μl M–H broth were administrated intraperitoneally into the mice to construct a sepsis model. Then, the mice were randomly divided to ten groups, which were administered intraperitoneally with 400 μL solutions containing 0.5 (based on ASOs), 1 or 1.5 mg kg^−1 DP-AD7anti-acpP and the counterpart DP-AD7mismatch, 1.5 mg kg^−1 L-DP-AD7anti-acpP, 1.5 mg kg^−1 LF2000-NPsanti-acpP, 4 mg kg^−1 ceftazidime or PBS at 0.5 and 6 h after infection. The surviving mice in each group were monitored every 6 h for the first day, afterwards, monitored every 12 h for 7 days day after infection, and the survival ratio was analyzed by Kaplan–Meier estimator.

ESBLs-E. coli [2] = assay: Bacterial load (CFU) in organs of septic mice; type: in vivo, male Balb/c mice; settings: text 1.5 mg kg^−1, methods 4 mg kg^−1; ten hours after infection; mean ± SE
Description: Two mice in each group were sacrificed 10 h after infection to study the bacterial clearance. The liver and kidney were harvested aseptically, one kidney and one lobe of liver of each mouse were weighed, and homogenized in 500 μl sterile saline solution, then 50 μl homogenate sample of each mice was performed serial tenfold dilutions to a 10^–5 dilution. Carefully spread 100 μL of each dilution onto a M–H agarose plate using a glass spreader. Incubate plates at 37 °C overnight and calculate the bacterial load. Colony counts were expressed as CFU g^−1 of tissue.

[3] = system: E. coli, ESBLs-E. coli, S. aureus and MRSA; assay: Delivery efficiency by flow cytometry, tested strains together; type: cell-based; settings: FAM-labeled, 1 h, 37 °C, flow cytometry (Fig. S9, S10)
Description: To measure the delivery efficiency, FAM-labeled DP-AD were added to bacterial cultures (approximately 5 × 10^6 CFU in 300 μl M–H broth) and incubated at 37 °C for 1 h away from light. The bacterial solutions were centrifuged at 2500 g at 4 °C for 5 min and washed twice with phosphate buffered saline (PBS) before analyzing them using the BL1 (green) channel in flow cytometry (Novocyte, Acer, USA). Data were analyzed using Flowjo software (version 10.0.7, Tree Star, Ashland, OR, USA). Free FAM-labeled ASOs and LF2000-NPs were used as the negative and positive control, respectively.
To measure the delivery rate of DP-AD7 in different types of bacteria, the bacteria (approximately 5 × 10^6 CFU in 300 μl M–H broth) were incubated with FAM-labeled DP-AD7 for 5, 10, 30 or 60 min at 37 °C or at 4 °C for 60 min in dark, then the bacterial solutions were processed, measured and analyzed as described above.

Molecule	Survival rate of septic mice, ceftazidime (ESBLs-E. coli [1])	Average bacterial load in the kidney, ceftazidime (ESBLs-E. coli [2])	Capacity to deliver ASOs into bacteria [3]
CC(C)(O/N=C(\C(=O)N[C@@H]1C(=O)N2C(C(=O)[O-])=C(C[n+]3ccccc3)CS[C@H]12)c1csc(N)n1)C(=O)O [ceftazidime]	30%	8.41 ± 1.60 × 10^7 CFU g^−1	–
Ac-LWALWK(Ac)K(Ac)K(Ac)RRHRRRHR [L-DPP, linear counterpart of DPP7, amphipathic, 9 positive charge and 2 His residues]	–	–	failure
